How the values were obtained:
Format in all cases: in vivo
Mice (NMRI) = experiment: Formalin paw test; conditions: 300 mg/kg p.o.
Procedure: The method, which detects analgesic activity, follows that described by Wheeler-Aceto et al (see […]-ACETO, H. & A., C. (1991), “Standardization of the rat paw formalin test for the evaluation of analgesics”, Psychopharmacology, 104, 35-44). Mice (NMRI) were given an intraplantar injection of 5% formalin (25 μl) into the posterior left paw. […] The time spent licking was counted for 15 minutes, beginning 15 minutes after injection of formalin. 10 mice were studied per group. The test was performed blind. ESL and carbamazepine (CBZ) were tested at the doses of 10, 30, 100 and 300 mg/kg p.o., and oxcarbazepine (OXC) and R-Lic were tested at the doses of 100 and 300 mg/kg p.o., administered 60 minutes before the test (i.e. 45 minutes before formalin), and compared with a vehicle control group in each experiment. Morphine (64 mg/kg p.o.), administered under the same experimental conditions, was used as reference substance.

[1] = tested on: mice with chronic constriction nerve injury (CCI); experiment: Paw withdrawal threshold (von Frey filaments) in CCI mice; conditions: gabapentin 100 mg/kg p.o.
Procedure: The materials used were (as also indicated in FIGS. 1 and 2): • Vehicle: 0.5% hydroxy-propyl-methyl-cellulose (HPMC) in water, 5 ml/kg, p.o.; • 50 mg/kg, 100 mg/kg, 150 mg/kg and 200 mg/kg: ESL at 50, 100, 150 and 200 mg/kg, p.o.; • GP 100 mg/kg: gabapentin 100 mg/kg, p.o.
The potential analgesic effects of orally dosed ESL was investigated at doses of 50, 100, 150 and 200 mg/kg, on the paw withdrawal threshold (PWT) and these effects compared with those of the dose vehicle and gabapentin, the latter at 100 mg/kg, in a mouse model of chronic constriction nerve injury (CCI).
Each animal received a single oral dose of either ESL (50, 100, 150, or 200 mg/kg), or gabapentin (100 mg/kg in saline) or vehicle (5 ml/kg). Behavioural testing was then performed twice, at approximately 60 and 120 minutes post-dose, to investigate the effect of treatments.

[2] = Plasma bioanalysis in CCI mice after oral ESL; conditions: oral ESL 50-200 mg/kg

Question: Which “licking in the formalin test at 300 mg/kg” value (Mice (NMRI)) does the source give for NC(=O)N1c2ccccc2C=Cc2ccccc21 [CBZ, carbamazepine, reference compound] here?
Answer: abolished licking

Question: With NCC1(CC(=O)O)CCCCC1 [gabapentin, reference compound] as the molecule, how does the “PWT in the contralateral limbs vs vehicle group” value ([1]; 2 hour after dosing, P<0.05) read?
Answer: significantly higher

Question: What about the PWT ([1]; positive control) of the same molecule?
Answer: significantly increased PWT

Question: Which “plasma concentrations vs dose of ESL” value [2] does the source give for NC(=O)N1c2ccccc2C[C@H](O)c2ccccc21 [eslicarbazepine] here?
Answer: positively correlated with the doses of ESL administered
